Literature values, collected in US20190054044A1, “ORAL DOSAGE FORM OF BOTH CLOMIPHENE ISOMERS AND METHOD OF USING SAME TO TREAT SECONDARY HYPOGONADISM AND MINIMIZE DRUG SIDE EFFECTS IN MEN” (ASPEN PARK PHARMACEUTICALS, INC., priority 2016, published 2019).
Where a name gives a salt, the structure may show the parent alone. One block for each compound: values may come before it.

Legend:
[1] = baboons
[2] = men
[3] = commercial doses (25 mg PO daily or 50 mg PO every other day)

Compound: CCN(CC)CCOc1ccc(/C(=C(\Cl)c2ccccc2)c2ccccc2)cc1 (single isomer, unassigned) [cis-isomer of clomiphene]
LH secretion ([1]; range of doses tested): inhibited LH secretion
peripheral testosterone ([1]; range of doses tested): reduced peripheral testosterone towards castrate blood levels

Compound: CCN(CC)CCOc1ccc(/C(=C(/Cl)c2ccccc2)c2ccccc2)cc1 [ANDROXAL, trans clomiphene citrate]
changes in visual acuity noted as an adverse event (clinical study): 0.2%
fatigue (side effect incidence) (clinical study): 2.8%
headache (side effect incidence) (clinical study): 6.6%
muscle spasms (side effect incidence) (clinical study): 4%
transient blurred vision (side effect incidence) (clinical study): 1.4%
upper respiratory tract infections (side effect incidence) (clinical study, conducted during the cold, flu and allergy season): 11.6%
number of skeletal fractures (treated versus placebo subjects, clinical studies): Increase in number of skeletal fractures

bone mineral density [3]: decrease bone mineral density
risk of fractures [3]: increase the risk of fractures
Compound: CCN(CC)CCOc1ccc(C(=C(Cl)c2ccccc2)c2ccccc2)cc1 [CLOMID, clomiphene citrate]
safety for long-term management of hypogonadism [2]: safe
T levels ([2]; long-term): raised T levels substantially
osteopenia/osteoporosis ([2]; long-term): improving osteopenia/osteoporosis

Compound: CCN(CC)CCOc1ccc(/C(=C(/Cl)c2ccccc2)c2ccccc2)cc1 [ENCLOMID]
total serum testosterone [1]: significantly and statistically raised total serum testosterone
